Values of other authors as cited in patent US20020035037A1, “CONTROL OF SCLEROTIUM CEPIVORUM IN ALLIUM PLANTS” (priority 1991, published 2002).

Test system: Sclerotium cepivorum
Conditions: iprodione 125 g/kg seed as seed treatment; procymidon 4-6 kg/ha as soil treatment; particularly with heavy infestation

SMILES	effectiveness of control of Sclerotium cepivorum
CC(C)NC(=O)N1CC(=O)N(c2cc(Cl)cc(Cl)c2)C1=O [iprodione]	not effective
CC12CC1(C)C(=O)N(c1cc(Cl)cc(Cl)c1)C2=O (centres unmarked) [procymidon]	not effective
